Experimental data from patent US20090054421A1, “Pyrimidothiophene Compounds Having HSP90 Inhibitory Activity” (Vernalis R & D Limited, priority 2005, published 2009).

Target: T1, human full-length HSP90 (Homo sapiens, UniProt P08238)
T1 construct: E. coli expressed human full-length HSP90 protein, purified >95%; made in house; host or cells: E. coli
Assay: Fluorescence polarization assay (competitive displacement of fluorescein-labelled probe from HSP90)
Type: binding
Conditions: activity range A or B
Excerpt: Fluorescence Polarization Assay
Fluorescence polarization {also known as fluorescence anisotropy} measures the rotation of a fluorescing species in solution, where the larger molecule the more polarized the fluorescence emission. When the fluorophore is excited with polarized light, the emitted light is also polarized. The molecular size is proportional to the polarization of the fluorescence emission.
The fluoroscein-labelled probe—
binds to HSP90 {full-length human, full-length yeast or N-terminal domain HSP90} and the anisotropy {rotation of the probe:protein complex} is measured.
Test compound is added to the assay plate, left to equilibrate and the anisotropy measured again. Any change in anisotropy is due to competitive binding of compound to HSP90, thereby releasing probe.
Chemicals are of the highest purity commercially available and all aqueous solutions are made up in AR water. • 1) Costar 96-well black assay plate #3915 • 2) Assay buffer of (a) 100 mM Tris pH7.4; (b) 20 mM KCl; (c) 6 mM MgCl2. Stored at room temperature. • 3) BSA (bovine serum albumen) 10 mg/ml (New England Biolabs # B9001S) • 4) 20 mM probe in 100% DMSO stock concentration. Stored in the dark at RT. Working concentration is 200 nM diluted in AR water and stored at 4° C., Final concentration in assay 80 nM. • 5) E. coli expressed human full-length HSP90 protein, purified >95% (see, e.g., Panaretou et al., 1998) and stored in 50 μL aliquots at −80° C.
• 1) Add 100 μl 1× buffer to wells 11A and 12A (=FP BLNK) • 2) Prepare assay mix—all reagents are kept on ice with a lid on the bucket as the probe is light-sensitive.
• 3) Aliquot 100 μl assay mix to all other wells • 4) Seal plate and leave in dark at room temp for 20 minutes to equilibrate Compound Dilution Plate—1×3 dilution series • 1) In a clear 96-well v-bottom plate—{# VWR 007/008/257} add 10 μl 100% DMSO to wells B1 to H11 • 2) To wells A1 to A11 add 17.5 μl 100% DMSO • 3) Add 2.5 μl cpd to A1. This gives 2.5 mM {50×} stock cpd—assuming cpds 20 mM. • 4) Repeat for wells A2 to A10. Control in columns 11 and 12. • 5) Transfer 5 μl from row A to row B—not column 12. Mix well. • 6) Transfer 5 μl from row B to row C. […] In column 11 {provides standard curve} only add compound B11-H11. Add 2 μl of 100 mM standard cpd to wells B12-H12 {is positive control} • 13) The Z′ factor is calculated from zero controls and positive wells. It typically gives a value of 0.7-0.9.
The compounds tested in the above assay were assigned to one of two activity ranges, namely A=<10 μM; B=>10 μM, and those assignments are reported above.

T1 sequence (P08238 whole entry): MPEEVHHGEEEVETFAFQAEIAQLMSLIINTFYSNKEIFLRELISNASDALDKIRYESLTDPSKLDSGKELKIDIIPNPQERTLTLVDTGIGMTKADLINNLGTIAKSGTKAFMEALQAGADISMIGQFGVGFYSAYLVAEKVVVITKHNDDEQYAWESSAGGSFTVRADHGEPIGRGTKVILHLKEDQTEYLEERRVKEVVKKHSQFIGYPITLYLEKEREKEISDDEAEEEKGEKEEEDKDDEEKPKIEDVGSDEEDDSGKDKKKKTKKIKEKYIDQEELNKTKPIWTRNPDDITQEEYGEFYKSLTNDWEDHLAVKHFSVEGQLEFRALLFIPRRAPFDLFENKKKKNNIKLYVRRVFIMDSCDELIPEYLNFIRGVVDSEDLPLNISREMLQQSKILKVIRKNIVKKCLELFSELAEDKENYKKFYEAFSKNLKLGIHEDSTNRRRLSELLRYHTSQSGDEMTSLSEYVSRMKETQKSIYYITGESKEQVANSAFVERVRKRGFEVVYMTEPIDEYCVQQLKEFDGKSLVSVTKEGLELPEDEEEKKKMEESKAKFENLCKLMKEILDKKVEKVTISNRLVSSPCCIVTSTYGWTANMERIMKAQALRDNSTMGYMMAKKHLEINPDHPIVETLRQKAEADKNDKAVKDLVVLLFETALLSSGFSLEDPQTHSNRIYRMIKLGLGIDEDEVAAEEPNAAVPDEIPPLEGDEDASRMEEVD

SMILES | IC50 [µM]
CC(C)NC(=O)c1cc2c(C(=NOCCN3CCCC3=O)c3ccc4c(c3)OCO4)nc(N)nc2s1 (mixture of isomers) [Example 46] | < 10
CCNC(=O)c1cc2c(C(=NOCCN3CCCC3)c3ccco3)nc(N)nc2s1 [Example 43] | < 10
CCNC(=O)c1cc2c(C(=NOCCN3CCCC3=O)c3ccc(-n4cccn4)cc3)nc(N)nc2s1 [Example 67] | < 10
CN(C)CCNC(=O)c1cc2c(C(=NO)c3ccc4c(c3)OCO4)nc(N)nc2s1 [Example 24] | < 10
CC(C)NC(=O)c1cc2c(C(=NOCCN3CCCC3)c3ccc4c(c3)OCO4)nc(N)nc2s1 [Example 45] | < 10
CCNC(=O)c1cc2c(C(=NO)c3ccc(-n4cccn4)cc3)nc(N)nc2s1 [Example 81] | < 10
Nc1nc(C(=NO)c2ccc3c(c2)OCO3)c2cc(C(=O)NCC(F)(F)F)sc2n1 [Example 25] | < 10
CCNC(=O)c1cc2c(C(=NO)c3ccccc3Cl)nc(N)nc2s1 [Example 11] | > 10
CCNC(=O)c1cc2c(C(=NOCCN3CCCC3=O)c3ccco3)nc(N)nc2s1 [Example 47] | < 10
CC(C)(C)NC(=O)c1cc2c(C(=NOCCN3CCCC3=O)c3ccc4c(c3)OCO4)nc(N)nc2s1 [Example 58] | < 10
COCCNC(=O)c1cc2c(C(=NOCCN3CCCC3)c3ccc4c(c3)OCO4)nc(N)nc2s1 [Example 53] | < 10
CCNC(=O)c1cc2c(C(=NO)c3ccc4c(c3)OCCN4C)nc(N)nc2s1 (mixture of isomers) [Example 2, 2-Amino-4-[hydroxyimino-(4-methyl-3,4-dihydro-2H-benzo[1,4]oxazin-7-yl)-methyl]-thieno[2,3-d]pyrimidine-6-carboxylic acid ethylamide] | < 10
CCNC(=O)c1cc2c(C(=NOCCN3CCCC3)c3ccc(-n4cccn4)cc3)nc(N)nc2s1 [Example 69] | > 10
Nc1nc(C(=NOCCN2CCCC2=O)c2ccc3c(c2)OCO3)c2cc(C(=O)NCC(F)(F)F)sc2n1 [Example 76] | < 10
CCNC(=O)c1cc2c(C(=NO)c3cccnc3)nc(N)nc2s1 [Example 7] | > 10
CCNC(=O)c1cc2c(C(=NO)c3ccncc3)nc(N)nc2s1 [Example 51] | > 10
Nc1nc(C(=NOCCN2CCCC2)c2ccc3c(c2)OCO3)c2cc(C(=O)NC3CC3)sc2n1 [Example 60] | < 10
CCNC(=O)c1cc2c(C(=NO)c3cc4c(cc3Cl)OCO4)nc(N)nc2s1 [Example 6] | < 10
CCNC(=O)c1cc2c(C(=NOCCN3CCCC3)c3cccs3)nc(N)nc2s1 [Example 39] | > 10
CCNC(=O)c1cc2c(C(=NOCCN(CC)CC)c3ccc(-n4cccc4)cc3)nc(N)nc2s1 [Example 70] | > 10
CCN(CC)CCON=C(c1ccc2c(c1)OCO2)c1nc(N)nc2sc(C(=O)NC3CC3)cc12 [Example 59] | < 10
CCNC(=O)c1cc2c(C(=NOCCN(CC)CC)c3ccc(N4CCCC4=O)cc3)nc(N)nc2s1 [Example 73] | > 10
CCNC(=O)c1cc2c(C(=NOCCN(CC)CC)c3cccs3)nc(N)nc2s1 [Example 38] | > 10
